The text below walks through data of patent US20240409585A1, “MACROCYCLIC IMMUNOMODULATORS” (priority 2021, published 2024).

For this test, the target named is T1, PE-labeled human PD-L1-Ig binding to Jurkat cell line over-expressing human PD-1 (Jurkat-PD-1) (Homo sapiens, UniProt Q15116).
T1 construct: expressed in transfected cells; host or cells: Jurkat
The test is described as follows: Jurkat-PD-1 Cell Binding High-Content Screening Assay (CBA): Method 1. Particulars: Jurkat-hPD-1 cells, PE-labeled PD-L1-Ig 20 nM final; read-out: Jurkat HPDL1 PD1 IC50 (uM) (Method 1).

Bridge positions count the residues as written; N and C are the ends. Square brackets hold non-standard residues; d marks the D form. Peptide text beside a SMILES is read from it. * marks the point of attachment. ξ: configuration not given here. Phe(4-COOH) = N[C@@H](Cc1ccc(C(=O)O)cc1)C(=O)O; Phe(4-CH2NH2) = NCc1ccc(C[C@H](N)C(=O)O)cc1; Bip = N[C@@H](Cc1ccc(-c2ccccc2)cc1)C(=O)O; Phe(3-Me) = Cc1cccc(C[C@H](N)C(=O)O)c1; Val(3-OH) = CC(C)(O)[C@H](N)C(=O)O; 2Pal = N[C@@H](Cc1ccccn1)C(=O)O; 4Pal = N[C@@H](Cc1ccncc1)C(=O)O; Cha = N[C@@H](CC1CCCCC1)C(=O)O; Cit = NC(=O)NCCC[C@H](N)C(=O)O; Ile(3ξ) = CCC(C)[C@H](N)C(=O)O; Carboxymethyl = O=C(O)C*; NMeA = CN[C@@H](C)C(=O)O; Dab = NCC[C@H](N)C(=O)O; Nva = CCC[C@H](N)C(=O)O

T1 sequence (Q15116 25-288): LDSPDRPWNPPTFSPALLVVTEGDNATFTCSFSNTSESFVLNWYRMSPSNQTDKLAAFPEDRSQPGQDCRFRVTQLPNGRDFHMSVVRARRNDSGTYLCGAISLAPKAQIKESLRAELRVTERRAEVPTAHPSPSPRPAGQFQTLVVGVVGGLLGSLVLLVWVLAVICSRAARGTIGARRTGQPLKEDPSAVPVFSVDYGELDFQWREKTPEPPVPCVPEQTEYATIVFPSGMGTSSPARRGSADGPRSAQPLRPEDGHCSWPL

With `CC(C)C[C@@H]1NC(=O)[C@H](CCN)NC(=O)[C@@H](CC(C)C)NC(=O)[C@H](C)N(C)C(=O)[C@H](CCCNC(N)=O)NC(=O)[C@H](Cc2ccc(-c3ccccc3)cc2)NC(=O)[C@H](C(C)C)NC(=O)[C@H](Cc2c[nH]c3ccccc23)NC(=O)[C@H](CC(=O)O)NC(=O)[C@H](Cc2ccc(OCC(=O)O)cc2)NC(=O)[C@H](Cc2ccccn2)NC(=O)CSC[C@@H](C(=O)N[C@@H](C)C(N)=O)NC(=O)[C@H]([C@@H](C)O)NC(=O)[C@H](C(C)C)NC1=O` [Compound 1329] ({CH2CO}-[2Pal]Y(Carboxymethyl)DWV[Bip][Cit][NMeA][dL][Dab]LVTCA-NH2; thioether N-14), the half-inhibitory concentration (IC50) (usually the concentration needed to halve the response being measured) came out at 0.19 µM.
The result for `CC(C)C[C@@H]1NC(=O)[C@H](Cc2c[nH]c3ccccc23)NC(=O)[C@H](CC(=O)O)NC(=O)[C@H](Cc2ccc(O)cc2)NC(=O)[C@H](Cc2ccccc2)NC(=O)CSC[C@@H](C(=O)N[C@@H](C)C(N)=O)NC(=O)[C@H](CO)NC(=O)[C@H](C(C)C)NC(=O)[C@H](CC(C)C)NC(=O)[C@H](CCCNC(=N)N)NC(=O)[C@@H](CC(C)C)NC(=O)[C@H](C)N(C)C(=O)[C@H](CCCNC(=N)N)NC(=O)[C@H](Cc2ccc(-c3ccccc3)cc2)NC1=O` [Compound 1780] ({CH2CO}-FYDWL[Bip]R[NMeA][dL]RLVSCA-NH2; thioether N-14) reads 0.08 µM.
The result for `Cc1cccc(C[C@@H]2NC(=O)[C@H](CC(=O)O)NC(=O)[C@H](Cc3ccc(OCC(=O)O)cc3)NC(=O)[C@H](CC(N)=O)NC(=O)CSC[C@@H](C(N)=O)NC(=O)[C@H](CCC(N)=O)NC(=O)[C@H](C(C)C)NC(=O)[C@H](CC3CCCCC3)NC(=O)[C@H](CCN)NC(=O)[C@@H](CC(C)C)NC(=O)[C@H](C)N(C)C(=O)[C@H](Cc3ccc(OCC(=O)O)cc3)NC(=O)[C@H](Cc3ccc(-c4ccccc4)cc3)NC(=O)[C@H](Cc3ccc(OCC(=O)O)cc3)NC2=O)c1` [Compound 1665] ({CH2CO}-NY(Carboxymethyl)D[Phe(3-Me)]Y(Carboxymethyl)[Bip]Y(Carboxymethyl)[NMeA][dL][Dab][Cha]VQC-NH2; thioether N-14) reads 0.09 µM.
With `CCC[C@@H]1NC(=O)[C@H](Cc2ccc(-c3ccccc3)cc2)NC(=O)[C@H](C(C)C)NC(=O)[C@H](Cc2c[nH]c3ccccc23)NC(=O)[C@H](CC(=O)O)NC(=O)[C@H](Cc2ccc(O)cc2)NC(=O)[C@H](CC(N)=O)NC(=O)CSC[C@@H](C(=O)N[C@@H](C)C(N)=O)NC(=O)[C@H]([C@@H](C)O)NC(=O)[C@H](C(C)C)NC(=O)[C@H](CC(C)C)NC(=O)[C@H](CCN)NC(=O)[C@@H](CC(C)C)NC(=O)[C@H](C)N(C)C1=O` [Compound 1258] ({CH2CO}-NYDWV[Bip][Nva][NMeA][dL][Dab]LVTCA-NH2; thioether N-14), the IC50 was 0.04 µM.
Regarding `CC(C)C[C@@H]1NC(=O)CSC[C@@H](C(=O)N[C@@H](C)C(N)=O)NC(=O)[C@H]([C@@H](C)O)NC(=O)[C@H](C(C)C)NC(=O)[C@H](CC(C)C)NC(=O)[C@H](CCN)NC(=O)[C@@H](CC(C)C)NC(=O)[C@H](C)N(C)C(=O)[C@H](CCCNC(=N)N)NC(=O)[C@H](Cc2ccc(-c3ccccc3)cc2)NC(=O)[C@H](C(C)C)NC(=O)[C@H](Cc2c[nH]c3ccccc23)NC(=O)[C@H](CC(=O)O)NC(=O)[C@H](Cc2ccc(O)cc2)NC1=O` [Compound 1039] ({CH2CO}-LYDWV[Bip]R[NMeA][dL][Dab]LVTCA-NH2; thioether N-14), the IC50 was 0.08 µM.
The result for `CC(C)C[C@H]1NC(=O)[C@H](C)N(C)C(=O)[C@H](C(C)C)NC(=O)[C@H](Cc2ccc(-c3ccccc3)cc2)NC(=O)[C@H](C(C)C)NC(=O)[C@H](Cc2c[nH]c3ccccc23)NC(=O)[C@H](CC(=O)O)NC(=O)[C@H](Cc2ccc(CN)cc2)NC(=O)[C@H](Cc2ccc(OCC(=O)O)cc2)NC(=O)CSC[C@@H](C(N)=O)NC(=O)[C@H](CO)NC(=O)[C@H](C(C)C)NC(=O)[C@H](CC2CCCCC2)NC(=O)[C@H](CC(N)=O)NC1=O` [Compound 2243] ({CH2CO}-Y(Carboxymethyl)[Phe(4-CH2NH2)]DWV[Bip]V[NMeA][dL]N[Cha]VSC-NH2; thioether N-14) reads 0.02 µM; that for `CC(C)C[C@@H]1NC(=O)[C@H](Cc2c[nH]c3ccccc23)NC(=O)[C@H](CC(=O)O)NC(=O)[C@H](Cc2ccc(O)cc2)NC(=O)[C@H](Cc2ccncc2)NC(=O)CSC[C@@H](C(=O)N[C@@H](C)C(N)=O)NC(=O)[C@H](CO)NC(=O)[C@H](C(C)C)NC(=O)[C@H](CC(C)C)NC(=O)[C@H](CC(N)=O)NC(=O)[C@@H](C)NC(=O)[C@H](C)N(C)C(=O)[C@H](C(C)C)NC(=O)[C@H](Cc2ccc(-c3ccccc3)cc2)NC1=O` [Compound 1730] ({CH2CO}-[4Pal]YDWL[Bip]V[NMeA][dA]NLVSCA-NH2; thioether N-14), 0.01 µM.
Next, `CC[C@H](C)[C@@H]1NC(=O)[C@H](Cc2ccc(-c3ccccc3)cc2)NC(=O)[C@H](C(C)(C)O)NC(=O)[C@H](Cc2cccc(C)c2)NC(=O)[C@H](CC(=O)O)NC(=O)[C@H](Cc2ccc(O)cc2)NC(=O)[C@H](CC(N)=O)NC(=O)CSC[C@@H](C(=O)N[C@H](C)C(N)=O)NC(=O)[C@H](CCC(=O)O)NC(=O)[C@H](C(C)C)NC(=O)[C@H](CC2CCCCC2)NC(=O)[C@H](CCN)NC(=O)[C@@H](CC(C)C)NC(=O)[C@H](C)N(C)C1=O` [Compound 1698] ({CH2CO}-NYD[Phe(3-Me)][Val(3-OH)][Bip]I[NMeA][dL][Dab][Cha]VEC[dA]-NH2; thioether N-14): 0.1 µM; `Cc1cccc(C[C@@H]2NC(=O)[C@H](CC(=O)O)NC(=O)[C@H](Cc3ccc(OCC(=O)O)cc3)NC(=O)[C@H](Cc3ccncc3)NC(=O)CSC[C@@H](C(=O)N[C@@H](CCN)C(N)=O)NC(=O)[C@H](CCC(=O)O)NC(=O)[C@H](C(C)(C)O)NC(=O)[C@H](CC3CCCCC3)NC(=O)[C@H](CCN)NC(=O)[C@@H](CC(C)C)NC(=O)[C@H](C)N(C)C(=O)[C@H](Cc3ccc(OCC(=O)O)cc3)NC(=O)[C@H](Cc3ccc(-c4ccccc4)cc3)NC(=O)[C@H](Cc3ccc(C(=O)O)cc3)NC2=O)c1` [Compound 2189] ({CH2CO}-[4Pal]Y(Carboxymethyl)D[Phe(3-Me)][Phe(4-COOH)][Bip]Y(Carboxymethyl)[NMeA][dL][Dab][Cha][Val(3-OH)]EC[Dab]-NH2; thioether N-14): 0.03 µM.
In the case of `Cc1cccc(C[C@@H]2NC(=O)[C@H](CC(=O)O)NC(=O)[C@H](Cc3ccc(OCC(=O)O)cc3)NC(=O)[C@H]([C@@H](C)O)NC(=O)CSC[C@@H](C(N)=O)NC(=O)[C@H](CC(N)=O)NC(=O)[C@H](C(C)C)NC(=O)[C@H](CC3CCCCC3)NC(=O)[C@H](CCN)NC(=O)[C@@H](CC(C)C)NC(=O)[C@H](C)N(C)C(=O)[C@H](Cc3ccc(OCC(=O)O)cc3)NC(=O)[C@H](Cc3ccc(-c4ccccc4)cc3)NC(=O)[C@H](Cc3ccc(OCC(=O)O)cc3)NC2=O)c1` [Compound 1669] ({CH2CO}-TY(Carboxymethyl)D[Phe(3-Me)]Y(Carboxymethyl)[Bip]Y(Carboxymethyl)[NMeA][dL][Dab][Cha]VNC-NH2; thioether N-14), the 50% inhibitory concentration (IC50) was found to be 0.06 µM.
The result for `CC[C@H](C)[C@@H]1NC(=O)[C@H](Cc2ccc(-c3ccccc3)cc2)NC(=O)[C@H](C(C)(C)O)NC(=O)[C@H](Cc2cccc(C)c2)NC(=O)[C@H](CC(=O)O)NC(=O)[C@H](Cc2ccc(O)cc2)NC(=O)[C@H](CC(N)=O)NC(=O)CSC[C@@H](C(=O)N[C@H](C)C(N)=O)NC(=O)[C@H]([C@@H](C)O)NC(=O)[C@H](C(C)C)NC(=O)[C@H](CC2CCCCC2)NC(=O)[C@H](CCN)NC(=O)[C@@H](CC(C)C)NC(=O)[C@H](C)N(C)C1=O` [Compound 1692] ({CH2CO}-NYD[Phe(3-Me)][Val(3-OH)][Bip]I[NMeA][dL][Dab][Cha]VTC[dA]-NH2; thioether N-14) reads 0.08 µM; that for `CCC(C)[C@@H]1NC(=O)[C@H](Cc2ccc(-c3ccccc3)cc2)NC(=O)[C@H](C(C)C)NC(=O)[C@H](Cc2c[nH]c3ccccc23)NC(=O)[C@H](CC(=O)O)NC(=O)[C@H](Cc2ccc(O)cc2)NC(=O)[C@H](CC(N)=O)NC(=O)CSC[C@@H](C(=O)N[C@@H](C)C(N)=O)NC(=O)[C@H](CO)NC(=O)[C@H](C(C)C)NC(=O)[C@H](CC(C)C)NC(=O)[C@H](CCN)NC(=O)[C@@H](CC(C)C)NC(=O)[C@H](C)N(C)C1=O` (stereo partly drawn) [Compound 2070] ({CH2CO}-NYDWV[Bip][Ile(3ξ)][NMeA][dL][Dab]LVSCA-NH2; thioether N-14), 0.05 µM; that for `CC(C)C[C@@H]1NC(=O)[C@H](CCN)NC(=O)[C@@H](CC(C)C)NC(=O)[C@H](C)N(C)C(=O)[C@H](CC(=O)O)NC(=O)[C@H](Cc2ccc(-c3ccccc3)cc2)NC(=O)[C@H](C(C)C)NC(=O)[C@H](Cc2c[nH]c3ccccc23)NC(=O)[C@H](CC(=O)O)NC(=O)[C@H](Cc2ccc(O)cc2)NC(=O)[C@H](CC(N)=O)NC(=O)CSC[C@@H](C(=O)N[C@@H](C)C(N)=O)NC(=O)[C@H]([C@@H](C)O)NC(=O)[C@H](C(C)C)NC1=O` [Compound 1260] ({CH2CO}-NYDWV[Bip]D[NMeA][dL][Dab]LVTCA-NH2; thioether N-14), 0.17 µM.
The result for `CC(C)C[C@@H]1NC(=O)[C@H](Cc2c[nH]c3ccccc23)NC(=O)[C@H](CC(=O)O)NC(=O)[C@H](Cc2ccc(OCC(=O)O)cc2)NC(=O)[C@H](Cc2ccccc2)NC(=O)CSC[C@@H](C(=O)N[C@@H](C)C(N)=O)NC(=O)[C@H](CO)NC(=O)[C@H](C(C)C)NC(=O)[C@H](CC(C)C)NC(=O)[C@H](CC(N)=O)NC(=O)[C@@H](CC(C)C)NC(=O)[C@H](C)N(C)C(=O)[C@H](CC(=O)O)NC(=O)[C@H](Cc2ccc(-c3ccccc3)cc2)NC1=O` [Compound 2029] ({CH2CO}-FY(Carboxymethyl)DWL[Bip]D[NMeA][dL]NLVSCA-NH2; thioether N-14) reads 0.04 µM.
